The values below come from publication PMC9587031, “Antibiotic polymyxin arranges lipopolysaccharide into crystalline structures to solidify the bacterial membrane” (Nature Communications, 2022).

Converted amounts (≈) assume the structure as drawn. Positions of bridges follow the written chain, without caps; N, C: chain ends. Non-standard residues stand in square brackets, D forms with d. Residues, ends and D or L forms follow the SMILES beside them. *: point of attachment. Heptanoyl(6-Me) = CC(C)CCCCC(=O)*; Dab = NCC[C@H](N)C(=O)O

The subject of one experiment is E. coli MG1655 WT. As to the kind of experiment: MIC, automated multi-well growth assay. It counts as cell-based, Escherichia coli. To be noted: for MIC: MG1655, 10 h. As to the method:
All titration assays to measure the growth curve of E. coli MG1655 strains at different polymyxin concentrations were performed on a Tecan EVO 200 robotic platform in 96-well plates (cell culture microplates 96 well µClear® CELLSTAR®, Greiner Bio-One GmbH). Plates with serial dilutions of the tested polymyxin derivatives were prepared and overnight cultures of the strains were combined to a final OD600 ≈ 0.05. Titration culture plates were placed in a shaking platform equipped with a Kuhner ES-X shaking module (Adolf Kühner AG) mounted inside an aluminum housing (Tecan) and temperature-controlled using an “Icecube” (Life Imaging Services). Titration cultures were grown for 10 h at 37 °C with shaking at 300 rpm in clear-bottom 96-well plates, which were sealed with peelable foil with small slits (Agilent) to prevent liquid evaporation and guarantee sterility. OD600 measurements were recorded using a Tecan Infinite M200 Pro plater reader.

In experiment [1] the test system is OM patches from E. coli MG1655 WT strain. Put plainly: AFM imaging of crystalline structure formation on OM patches. The arrangement: species or system Escherichia coli. The following applies: DPBS supplemented with 5 mM Mg2+ (MgCl2). As to the method:
E. coli MG1655 strains were transformed with the pY200 plasmid that carries an mCherry gene preceded by the periplasmic export signal of the skp protein under control of the lux promoter. This construct enables over-expression of mCherry into the periplasmic space, which in turn increases the OMV production. Cultures were grown in LB medium (Difco) with 50 µg/ml spectinomycin (Fischer Scientific) at 37 °C. Expression of mCherry was induced at an OD600 ≈ 0.4 by N-(β ketocaproyl)-L-homoserine lactone (HSL, Cayman Chemical). After induction, the cultures were grown until they reached the early stationary phase, and bacteria were removed by centrifugation at 10,000 g for 10 min. […]
OMVs produced from different E. coli MG1655 strains were adsorbed onto freshly cleaved mica for 15 min in DPBS buffer at room temperature. […] The images were recorded using two different AFM cantilevers: PEAKFORCE‐HiRs‐F‐A (Bruker) with a nominal spring constant of 0.4 N/m, a resonance frequency of ≈ 165 kHz in liquid, and a sharpened silicon tip with a nominal radius of ≈ 1 nm or SCANASYST-FLUID + (Bruker) with a nominal spring constant of 0.7 N/m, a resonance frequency of ≈ 150 kHz in liquid, and a sharpened silicon tip with a nominal radius of ≈ 2 nm. […] Images were recorded at 2 kHz oscillation frequency, by applying an imaging force of 100–120 pN with a vertical amplitude of 30 nm. […]

The subject of the next experiment is E. coli MG1655 MCR-1. As to the kind of experiment: MIC, automated multi-well growth assay. It counts as cell-based, Escherichia coli. To be noted: E. coli MG1655 containing the MCR-1 plasmid, growth curves (Fig. 1b). From the text: In order to confer colistin resistance to the E. coli K-12 MG1655 strain and derivatives, an mcr-1 gene together with its native promoter region was cloned onto the pBR322 plasmid backbone, creating pAH213_mcr1. Briefly, the mcr-1 gene of colistin-resistant E. coli strain 2 HS-C was identified as gene E4F32_22195 on plasmid p2HS-C-1 (GenBank CP038181.1) and amplified together with ≈ 400 nucleotides of its immediate upstream region using primers prAH2159 and prAH2160. The backbone of pBR322 without its tetracycline resistance cassette was amplified using primers prAH1981 and prAH1982. Using 25 bp overhangs to the backbone included in prAH2159 / prAH2160, insert and backbone were ligated using Gibson assembly. The resulting plasmid pAH213_mcr1 confers colistin resistance to the E. coli K-12 MG1655 strain with a minimal inhibitory concentration of 5 µg/ml (empty vector and vector-free controls: 0.5 µg/ml). Robust growth of the E. coli K-12 MG1655 strains carrying pAH213_mcr1 was observed up to a concentration of 3 µg/ml. […]
All titration assays to measure the growth curve of E. coli MG1655 strains at different polymyxin concentrations were performed on a Tecan EVO 200 robotic platform in 96-well plates (cell culture microplates 96 well µClear® CELLSTAR®, Greiner Bio-One GmbH). […] OD600 measurements were recorded using a Tecan Infinite M200 Pro plater reader.

The test system of experiment [2] is E. coli K-12 MG1655 carrying pAH213_mcr1. Put plainly: Colistin MIC, validation of plasmid pAH213_mcr1. It counts as cell-based, Escherichia coli. The text has this: (§1) In order to confer colistin resistance to the E. coli K-12 MG1655 strain and derivatives, an mcr-1 gene together with its native promoter region was cloned onto the pBR322 plasmid backbone, creating pAH213_mcr1. Briefly, the mcr-1 gene of colistin-resistant E. coli strain 2 HS-C was identified as gene E4F32_22195 on plasmid p2HS-C-1 (GenBank CP038181.1) and amplified together with ≈ 400 nucleotides of its immediate upstream region using primers prAH2159 and prAH2160. The backbone of pBR322 without its tetracycline resistance cassette was amplified using primers prAH1981 and prAH1982. Using 25 bp overhangs to the backbone included in prAH2159 / prAH2160, insert and backbone were ligated using Gibson assembly. The resulting plasmid pAH213_mcr1 confers colistin resistance to the E. coli K-12 MG1655 strain with a minimal inhibitory concentration of 5 µg/ml (empty vector and vector-free controls: 0.5 µg/ml). Robust growth of the E. coli K-12 MG1655 strains carrying pAH213_mcr1 was observed up to a concentration of 3 µg/ml. The plasmids were transferred to the cells using the transformation and storage solution (TSS) method.

In experiment [3] the test system is E. coli K-12 MG1655 empty vector and vector-free controls. Put plainly: Colistin MIC, validation of plasmid pAH213_mcr1, controls. It counts as cell-based, Escherichia coli.
Excerpt: as §1

By MIC is commonly meant the lowest concentration found to suppress growth. A high value points to a need for much substance. Compound `CC(C)C[C@@H]1NC(=O)[C@@H](CC(C)C)NC(=O)[C@H](CCN)NC(=O)[C@@H](NC(=O)[C@H](CCN)NC(=O)[C@@H](NC(=O)[C@@H](N)CCN)[C@@H](C)O)CCNC(=O)[C@H]([C@@H](C)O)NC(=O)[C@H](CCN)NC(=O)[C@H](CCN)NC1=O` [Polymyxin E intermediate-length] (H-[Dab]T[Dab][Dab][Dab][dL]L[Dab][Dab]T; lactam 4-C) displayed a minimum inhibitory concentration (MIC) against E. coli MG1655 WT of 8 µg/mL (≈ 7.77 µM).

On to `CC(C)CCCCC(=O)N[C@@H](CCN)C(=O)N[C@H](C(=O)N[C@@H](CCN)C(=O)N[C@H]1CCNC(=O)[C@@H]([C@H](C)O)NC(=O)[C@H](CCN)NC(=O)[C@H](CCN)NC(=O)[C@H](CC(C)C)NC(=O)[C@@H](CC(C)C)NC(=O)[C@H](CCN)NC1=O)[C@@H](C)O` [Polymyxin E with stereochemistry change] ({Heptanoyl(6-Me)}-[Dab]T[Dab][Dab][Dab][dL]L[Dab][Dab][dT]; lactam 4-C), for which, in the experiment with E. coli MG1655 WT, the minimal inhibitory concentration (MIC) was 32 µg/mL (≈ 27.7 µM).

As to Polymyxin E, the “MIC from bacterial growth curves” value in the experiment with E. coli MG1655 WT (E. coli K-12 MG1655 WT, growth curves with increasing antibiotic concentration (Fig. 1b)) lay in the range of 0.5 to 1 µg/mL. The “polymyxin E concentration at which crystalline structures formed” value in experiment [1] worked out at 1.2 mg/L. Also, the “polymyxin E concentration in which the strain was able to grow” value with E. coli MG1655 MCR-1 was 32 mg/L. Further, the “concentration up to which robust growth was observed” value in experiment [2] (E. coli K-12 MG1655 strains carrying pAH213_mcr1) was at most 3 µg/mL. For the same compound, the figures for the minimal inhibitory concentration in experiment [2] (E. coli K-12 MG1655 with plasmid pAH213_mcr1) and in experiment [3] were 5 µg/mL and 0.5 µg/mL, respectively.
